Target: WDR5 (Homo sapiens (Human), UniProt P61964)
Experiment: Surface Plasmon Resonance (SPR) assay, KD and residence time
Type: binding
Details: surface plasmon resonance (SPR) assay; read-out: WDR5 binding affinity (KD)

Compound | Kd
CCC(C)N1CC=C(c2cc(NC(=O)c3c[nH]c(=O)cc3C(F)(F)F)c(N3C[C@@H](C)N(C)[C@@H](C)C3)cc2F)CC1 (stereo partly drawn) [Example 233, N-[5-(1-butan-2-yl-3,6-dihydro-2H-pyridin-4-yl)-4-fluoro-2-[(3R,5S)-3,4,5-trimethylpiperazin-1-yl]phenyl]-6-oxo-4-(trifluoromethyl)-1H-pyridine-3-carboxamide] | 3.89 nM
COc1ccc(C(C)N2CC=C(c3cc(NC(=O)c4c[nH]c(=O)cc4C(F)(F)F)c(N4C[C@@H](C)N(C)[C@@H](C)C4)cc3F)CC2)cc1 (stereo partly drawn) [Example 232, N-[4-fluoro-5-[1-[1-(4-methoxyphenyl)ethyl]-3,6-dihydro-2H-pyridin-4-yl]-2-[(3R,5S)-3,4,5-trimethylpiperazin-1-yl]phenyl]-6-oxo-4-(trifluoromethyl)-1H-pyridine-3-carboxamide] | 2.72 nM
C[C@@H]1CN(c2cc(F)c(C3=CCN(c4ccccc4)CC3)cc2NC(=O)c2c[nH]c(=O)cc2C(F)(F)F)C[C@H](C)N1C [Example 73, N-[4-fluoro-5-(1-phenyl-3,6-dihydro-2H-pyridin-4-yl)-2-[(3R,5S)-3,4,5-trimethylpiperazin-1-yl]phenyl]-6-oxo-4-(trifluoromethyl)-1H-pyridine-3-carboxamide] | 3.63 nM
C[C@@H]1CN(c2cc(F)c(C3=CCCN(c4ncccn4)C3)cc2NC(=O)c2cn(C)c(=O)cc2C(F)(F)F)C[C@H](C)N1C [Example 391, N-[4-fluoro-5-(1-pyrimidin-2-yl-3,6-dihydro-2H-pyridin-5-yl)-2-[(3R,5S)-3,4,5-trimethylpiperazin-1-yl]phenyl]-1-methyl-6-oxo-4-(trifluoromethyl)pyridine-3-carboxamide] | 4.27 nM
C[C@@H]1CN(c2ncc(-c3cc(NC(=O)c4c[nH]c(=O)cc4C(F)(F)F)c(N4CCN(C)[C@H](C)C4)cc3F)cn2)CCO1 (stereo in doubt) [Example 389, N-[4-fluoro-2-[(3R)-3,4-dimethylpiperazin-1-yl]-5-[2-[(2R)-2-methylmorpholin-4-yl]pyrimidin-5-yl]phenyl]-6-oxo-4-(trifluoromethyl)-1H-pyridine-3-carboxamide] | 0.522 nM

The remaining lines, values ahead:

Kd | Compound
0.656 nM | CC(C)Oc1ncc(-c2cc(NC(=O)c3c[nH]c(=O)cc3C(F)(F)F)c(N3C[C@@H](C)N(C)[C@@H](C)C3)cc2F)cn1 [Example 130, N-[4-fluoro-5-(2-propan-2-yloxypyrimidin-5-yl)-2-[(3R,5S)-3,4,5-trimethylpiperazin-1-yl]phenyl]-6-oxo-4-(trifluoromethyl)-1H-pyridine-3-carboxamide]
1.98 nM | C[C@@H]1CN(c2cc(F)c(C3=CCN(C(=O)CC(C)(C)C)CC3)cc2NC(=O)c2c[nH]c(=O)cc2C(F)(F)F)C[C@H](C)N1C [Example 255, N-[5-[1-(3,3-dimethylbutanoyl)-3,6-dihydro-2H-pyridin-4-yl]-4-fluoro-2-[(3R,5S)-3,4,5-trimethylpiperazin-1-yl]phenyl]-6-oxo-4-(trifluoromethyl)-1H-pyridine-3-carboxamide]
5.26 nM | CC1CN(c2cc(F)c(-c3ccc(N4CCN(C)CC4)nc3)cc2NC(=O)c2cn(C)c(=O)cc2C(F)(F)F)CCN1C (stereo in doubt) [Example 301, N-[4-fluoro-5-[6-(4-methylpiperazin-1-yl)pyridin-3-yl]-2-[(3R)-3,4-dimethylpiperazin-1-yl]phenyl]-1-methyl-6-oxo-4-(trifluoromethyl)pyridine-3-carboxamide]
9.14 nM | C[C@@H]1CN(c2cc(F)c(-c3ccc(N4CCCC4)cc3)cc2NC(=O)c2cn(C)c(=O)cc2C(F)(F)F)C[C@H](C)N1C [Example 227, N-[4-fluoro-5-(4-pyrrolidin-1-ylphenyl)-2-[(3R,5S)-3,4,5-trimethylpiperazin-1-yl]phenyl]-1-methyl-6-oxo-4-(trifluoromethyl)pyridine-3-carboxamide]
466 nM | C[C@@H]1CN(c2cc(F)c(-c3cnc(N4CCOCC4)nc3)cc2NC(=O)c2cccc3c2OCO3)C[C@H](C)N1C [Example 105, N-[4-fluoro-5-(2-morpholin-4-ylpyrimidin-5-yl)-2-[(3R,5S)-3,4,5-trimethylpiperazin-1-yl]phenyl]-1,3-benzodioxole-4-carboxamide]

Same assay, conditions: surface plasmon resonance (SPR); read-out: WDR5 binding affinity (KD)

Compound | Kd
N-[5-[1-(5-cyano-1,3-thiazol-2-yl)-3,6-dihydro-2H-pyridin-4-yl]-4-fluoro-2-[(3R)-3,4-dimethylpiperazin-1-yl]phenyl]-4-fluoro-2-(trifluoromethyl)benzamide [Example 690] | 4.17 nM
C[C@@H]1CN(c2cc(F)c(-c3csc(C(=O)N4CCN(C)CC4)n3)cc2NC(=O)c2cn(C)c(=O)cc2C(F)(F)F)C[C@H](C)N1C [Example 528, N-[4-fluoro-5-[2-(4-methylpiperazine-1-carbonyl)-1,3-thiazol-4-yl]-2-[(3R,5S)-3,4,5-trimethylpiperazin-1-yl]phenyl]-1-methyl-6-oxo-4-(trifluoromethyl)pyridine-3-carboxamide] | 4.05 nM
C[C@@H]1CN(c2cc(F)c(C3=CCCN(c4ncc(C#N)s4)C3)cc2NC(=O)c2c[nH]c(=O)cc2C(F)(F)F)C[C@H](C)N1C [Example 615, N-[5-[1-(5-cyano-1,3-thiazol-2-yl)-3,6-dihydro-2H-pyridin-5-yl]-4-fluoro-2-[(3R,5S)-3,4,5-trimethylpiperazin-1-yl]phenyl]-6-oxo-4-(trifluoromethyl)-1H-pyridine-3-carboxamide] | 0.375 nM
CNC(=O)c1ccc(-c2cc(NC(=O)c3c[nH]c(=O)cc3C(F)F)c(N3C[C@@H](C)N(C)[C@@H](C)C3)cc2F)cc1F [Example 605, 4-(difluoromethyl)-N-[4-fluoro-5-[3-fluoro-4-(methylcarbamoyl)phenyl]-2-[(3R,5S)-3,4,5-trimethylpiperazin-1-yl]phenyl]-6-oxo-1H-pyridine-3-carboxamide] | 0.6 nM
C[C@@H]1CN(c2cc(F)c(-c3csc(C(=O)N4CCN(C)CC4)n3)cc2NC(=O)c2c[nH]c(=O)cc2C(F)(F)F)C[C@H](C)N1C [Example 536, N-[4-fluoro-5-[2-(4-methylpiperazine-1-carbonyl)-1,3-thiazol-4-yl]-2-[(3R,5S)-3,4,5-trimethylpiperazin-1-yl]phenyl]-6-oxo-4-(trifluoromethyl)-1H-pyridine-3-carboxamide] | 1.03 nM
O=C(Nc1cc(-c2cnc(N3CCOCC3)nc2)c(F)cc1N1C[C@H]2CCN[C@H]2C1)c1c[nH]c(=O)cc1C(F)(F)F (stereo in doubt) [Example 463, N-[4-fluoro-5-(2-morpholin-4-ylpyrimidin-5-yl)-2-[(3aR,6aR)-2,3,3a,4,6,6a-hexahydro-1H-pyrrolo[2,3-c]pyrrol-5-yl]phenyl]-6-oxo-4-(trifluoromethyl)-1H-pyridine-3-carboxamide] | 168 nM
Cc1cnc(N2CC=C(c3cc(NC(=O)c4c[nH]c(=O)cc4C(F)(F)F)c(N4C[C@@H](C)N(C)[C@@H](C)C4)cc3F)C2)nc1 [Example 439, N-[4-fluoro-5-[1-(5-methylpyrimidin-2-yl)-2,5-dihydropyrrol-3-yl]-2-[(3R,5S)-3,4,5-trimethylpiperazin-1-yl]phenyl]-6-oxo-4-(trifluoromethyl)-1H-pyridine-3-carboxamide] | 2.45 nM
C[C@@H]1CN(c2ccc(-c3cc(NC(=O)c4cn(C)c(=O)cc4C(F)(F)F)c(N4CCN(C)[C@@H](C)C4)cc3F)cn2)C[C@H](C)O1 (racemic) [Example 421, N-[4-fluoro-5-[6-[(2R,6S)-2,6-dimethylmorpholin-4-yl]pyridin-3-yl]-2-[(3R)-3,4-dimethylpiperazin-1-yl]phenyl]-1-methyl-6-oxo-4-(trifluoromethyl)pyridine-3-carboxamide] | 1.96 nM
C[C@@H]1CN(c2cc(F)c(-c3ccnc(N4CCOCC4)n3)cc2NC(=O)c2cn(C)c(=O)cc2C(F)(F)F)C[C@H](C)N1C [Example 693, N-[4-fluoro-5-(2-morpholin-4-ylpyrimidin-4-yl)-2-[(3R,5S)-3,4,5-trimethylpiperazin-1-yl]phenyl]-1-methyl-6-oxo-4-(trifluoromethyl)pyridine-3-carboxamide] | 4.79 nM

Results, then the compound that gave them:

Kd | Compound
7.99 nM | C[C@@H]1CN(c2cc(F)c(C3=CCCN(C(=O)OC4CC(F)(F)C4)CC3)cc2NC(=O)c2c[nH]c(=O)cc2C(F)F)C[C@H](C)N1C [Example 730, (3,3-difluorocyclobutyl) 4-[5-[[4-(difluoromethyl)-6-oxo-1H-pyridine-3-carbonyl]amino]-2-fluoro-4-[(3R,5S)-3,4,5-trimethylpiperazin-1-yl]phenyl]-2,3,6,7-tetrahydroazepine-1-carboxylate]
1.09 nM | CC1CN(c2cc(F)c(-c3ccnc(N4CCOCC4)n3)cc2NC(=O)c2c[nH]c(=O)cc2C(F)(F)F)CCN1C (stereo in doubt) [Example 718, N-[4-fluoro-5-(2-morpholin-4-ylpyrimidin-4-yl)-2-[(3R)-3,4-dimethylpiperazin-1-yl]phenyl]-6-oxo-4-(trifluoromethyl)-1H-pyridine-3-carboxamide]
2.16 nM | CC1CN(c2cc(F)c(-c3ccc(N4CCNCC4)nc3)cc2NC(=O)c2ccc(F)cc2C(F)(F)F)CCN1C (stereo in doubt) [Example 530, 4-fluoro-N-[4-fluoro-5-(6-piperazin-1-ylpyridin-3-yl)-2-[(3R)-3,4-dimethylpiperazin-1-yl]phenyl]-2-(trifluoromethyl)benzamide]
1.01 nM | CC1CN(c2cc(F)c(-c3ccc(N4CCOCC4)c(F)c3)cc2NC(=O)c2c[nH]c(=O)cc2C(F)F)CCN1C (stereo in doubt) [Example 448, 4-(difluoromethyl)-N-[4-fluoro-5-(3-fluoro-4-morpholin-4-ylphenyl)-2-[(3R)-3,4-dimethylpiperazin-1-yl]phenyl]-6-oxo-1H-pyridine-3-carboxamide]
3.24 nM | C[C@@H]1CN(c2cc(F)c(C3=CCN(C(=O)OC4(C)COC4)C3)cc2NC(=O)c2c[nH]c(=O)cc2C(F)(F)F)C[C@H](C)N1C [Example 490, (3-methyloxetan-3-yl) 3-[2-fluoro-5-[[6-oxo-4-(trifluoromethyl)-1H-pyridine-3-carbonyl]amino]-4-[(3R,5S)-3,4,5-trimethylpiperazin-1-yl]phenyl]-2,5-dihydropyrrole-1-carboxylate]
